Where no end group is shown, it is not given here.
Columns and labels:
[1] = target: T1, 353 form of the 11CBy receptor (Homo sapiens, UniProt Q99705); assay: Radioligand ([125I]-MCH) competitive binding on membranes from HEK293 cells stably expressing 11CBy receptors; details: [125I]-MCH 0.22 nM, 45 min 37° C., pH7.4, pKi calculated from IC50
T1 construct: expressed in transfected cells; well washed membranes
Procedure: Membranes ([…] protein) were incubated with [^125I]-Melanin Concentrating Hormone (0.22 nM) (obtained from NEN) in the presence and absence of competing test compounds for 45 min at 37° C. in a buffer (pH7.4), containing 50 mM Tris and 0.2% BSA. Non-specific binding was defined using […] Melanin Concentrating Hormone (obtained from Bachem). The test compounds were added at concentrations between […] and 10 pM in 10 concentration steps. Following incubation, the reaction was stopped by filtration through GF/B filters and washed with 4×1 ml of ice-cold 50 mM Tris buffer. Microscint 20 (Packard) was added to the filters and the radioactivity measured using a Packard TopCount. Bound cpm in the presence of test compound was expressed as a fraction of the bound cpm in the absence of test compound and plotted against the concentration of compound. From this an IC50 was determined from which the pKi was calculated.

[2] = system: conscious CD rats; assay: Effects of 11CBy antagonists on plasma glucagon and blood glucose levels (rat glucagon secretion model); format: in vivo
Source text: Study of Effects of 11CBy Antagonists on Plasma Glucagon and Blood Glucose Levels

[3] = Example A4 15 mg/kg + MCH group, 5 min
[4] = Example A4 15 mg/kg + MCH group, 15 min
[5] = Example A4 15 mg/kg + MCH group, time 0

T1 sequence (Q99705 whole entry): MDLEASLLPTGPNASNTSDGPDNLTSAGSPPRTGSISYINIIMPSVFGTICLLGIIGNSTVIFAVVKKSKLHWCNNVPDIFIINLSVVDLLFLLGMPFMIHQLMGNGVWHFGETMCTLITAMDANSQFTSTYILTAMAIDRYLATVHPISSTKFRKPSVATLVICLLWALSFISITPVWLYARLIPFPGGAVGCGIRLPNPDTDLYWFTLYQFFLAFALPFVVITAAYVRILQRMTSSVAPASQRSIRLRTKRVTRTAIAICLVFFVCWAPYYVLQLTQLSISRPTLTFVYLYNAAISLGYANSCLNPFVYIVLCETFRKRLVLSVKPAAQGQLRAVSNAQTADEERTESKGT

Work on `COc1cc(-n2nnc3cc(-c4ccccc4)ccc3c2=O)ccc1OCCN1CCCC1` [Example C5, 3-[3-Methoxy-4-(2-pyrrolidin-1-yl-ethoxy)-phenyl]-7-phenyl-3H-benzo[d][1,2,3]triazin-4-one] yielded a Ki [1] of 10 to 31.6 nM.

In the case of “MCH (DFDMLRCMLGRVYRPCWQV; ends and bridges not checked; cysteine pairing not given here; UniProt P20382 147-165, looked up) [reference compound]”, the Blood glucose ([2]; MCH 50 ug/kg group, 5 min) is reported as 6.5 ± 0.33 (7) mmol/l, the Plasma glucagon ([2]; MCH 50 ug/kg group, 5 min) is reported as 35.16 ± 2.5 (7) pg/ml and the Blood glucose ([2]; MCH 50 ug/kg group, 15 min) is reported as 11.81 ± 1.27 (7) mmol/l. The Plasma glucagon ([2]; MCH 50 ug/kg group, 15 min) was 28.67 ± 1.61 (7) pg/ml, the Blood glucose ([2]; MCH 50 ug/kg group, time 0) was 5.87 ± 0.22 (7) mmol/l and the Plasma glucagon ([2]; MCH 50 ug/kg group, time 0) was 23.6 ± 1.2 (6) pg/ml. The “increase in plasma glucagon from the pre-treatment value” ([2]; MCH 50 ug/kg iv alone, after 5 minutes) was 48.7%, the “maximum rise in blood glucose concentration” value ([2]; MCH 50 ug/kg iv alone, after 15 min) was 101% and the “increase in plasma glucagon from the pre-treatment value” ([2]; MCH 50 ug/kg iv alone, after 15 minutes) was 21%.

With `COc1cc(N2C(=O)c3ccc(Nc4ccccc4)cc3C2=O)ccc1OCCN1CCCC1` [Example A5, 2-[3-Methoxy-4-(2-pyrrolidin-1-yl-ethoxy)-phenyl]-5-phenylamino-isoindole-1,3-dione] the Ki [1] was 10 to 31.6 nM.

In the case of `COc1cc(N2C(=O)c3ccc(Oc4ccccc4)cc3C2=O)ccc1OCCN1CCCC1.Cl` [Example A4, 2-[3-Methoxy-4-(2-pyrrolidin-1-yl-ethoxy)-phenyl]-5-phenoxy-isoindole-1,3-dione hydrochloride], the “pKi in binding to the 353 form of the 11CBy receptor” value [1] is reported as 7.7, the Blood glucose [2, 3] is reported as 6.46 ± 0.46 (7) mmol/l and the Plasma glucagon [2, 3] is reported as 30.85 ± 2.01 (7) pg/ml. For the same compound, the Blood glucose [2, 4] was 7.71 ± 0.43 (7) mmol/l, the Plasma glucagon [2, 4] was 22.87 ± 0.56 (5) pg/ml and the Blood glucose [2, 5] was 5.35 ± 0.23 (7) mmol/l. The Plasma glucagon [2, 5] was 23.45 ± 1.16 (7) pg/ml, the “rise in plasma glucagon” value ([2]; Example A4 15 mg/kg iv five minutes prior to iv MCH bolus, after 5 minutes) was “no rise” and the “rise in plasma glucagon” value ([2]; Example A4 15 mg/kg iv five minutes prior to iv MCH bolus, after 15 min) was 2.7%. It also gave a blood glucose increase ([2]; Example A4 15 mg/kg iv five minutes prior to iv MCH bolus, time not given) of 44%.

With `COc1cc(-n2cnc3cc(-c4ccccc4)sc3c2=O)ccc1OCCN1CCCC1` [Example F1, 3-[3-Methoxy-4-(2-pyrrolidin-1-yl-ethoxy)-phenyl]-6-phenyl-3H-thieno[3,2-d]pyrimidin-4-one] the Ki [1] was 10 to 31.6 nM.

— patent US7220777B2, “Lactam derivatives as antagonists for human 11cby receptors” (SmithKline Beecham P.L.C., priority 2001, dated 2007)
